Assay results: US8410056B2, “Pro-oxidant anti-cancer compounds” (priority 2006, dated 2013)
Structures can show the parent of a compound that is named as a salt.

Legend:
[1] = system: Jurkat, HBT11, MCF7, MCF7-C3; settings: Birringer et al, cited from earlier work; for pro-apoptotic activity: compared with α-TOS and isomers; for IC50: Jurkat, HBT11, MCF7, MCF7-C3, 2003
[2] = biological target: T1, complex II/SDH-dependent activity in NeuTL cells (Mus musculus, UniProt Q8K2B3+Q9CQA3+Q9CXV1+Q9CZB0); test: MTT reduction assay of complex II/SDH activity in whole cells; type: cell-based, murine; settings: absence of added succinate; 4 h
T1 construct: For specifically measuring complex II activity in whole cells; endogenous in cells; host or cells: NeuTL murine breast cancer cells
T1 sequence (Q8K2B3 43-664): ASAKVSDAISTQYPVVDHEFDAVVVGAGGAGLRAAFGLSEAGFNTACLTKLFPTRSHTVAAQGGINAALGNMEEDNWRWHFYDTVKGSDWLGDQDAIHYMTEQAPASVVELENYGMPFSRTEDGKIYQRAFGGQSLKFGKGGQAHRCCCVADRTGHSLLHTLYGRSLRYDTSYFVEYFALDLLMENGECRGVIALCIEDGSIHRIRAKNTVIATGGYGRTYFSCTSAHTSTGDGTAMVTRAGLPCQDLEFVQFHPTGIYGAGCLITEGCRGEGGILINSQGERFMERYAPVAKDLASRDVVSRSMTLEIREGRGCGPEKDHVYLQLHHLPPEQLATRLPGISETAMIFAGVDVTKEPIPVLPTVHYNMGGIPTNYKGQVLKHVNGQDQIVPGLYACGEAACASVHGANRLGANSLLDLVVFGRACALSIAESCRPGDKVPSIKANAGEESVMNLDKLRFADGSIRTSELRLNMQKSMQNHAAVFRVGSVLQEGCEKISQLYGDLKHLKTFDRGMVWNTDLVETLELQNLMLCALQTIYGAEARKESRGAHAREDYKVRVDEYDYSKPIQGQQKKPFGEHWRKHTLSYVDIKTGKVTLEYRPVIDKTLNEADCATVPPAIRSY
T1 sequence (Q9CQA3 31-282): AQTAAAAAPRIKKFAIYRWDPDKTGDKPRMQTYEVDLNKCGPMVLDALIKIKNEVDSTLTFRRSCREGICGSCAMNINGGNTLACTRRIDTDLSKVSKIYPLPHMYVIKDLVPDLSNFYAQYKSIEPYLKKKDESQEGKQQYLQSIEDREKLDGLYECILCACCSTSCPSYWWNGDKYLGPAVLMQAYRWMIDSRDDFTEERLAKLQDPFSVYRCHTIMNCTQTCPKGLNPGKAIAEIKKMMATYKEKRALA
T1 sequence (Q9CZB0 30-169): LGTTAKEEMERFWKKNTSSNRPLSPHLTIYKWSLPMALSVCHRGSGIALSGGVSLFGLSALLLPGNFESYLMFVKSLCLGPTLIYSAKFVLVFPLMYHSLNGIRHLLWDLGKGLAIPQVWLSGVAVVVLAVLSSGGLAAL
T1 sequence (Q9CXV1 57-159): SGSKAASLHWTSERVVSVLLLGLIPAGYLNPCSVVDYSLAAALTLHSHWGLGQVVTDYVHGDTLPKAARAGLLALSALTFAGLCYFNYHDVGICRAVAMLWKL
Description: MTT assay. MTT solutions were prepared immediately before use by dissolving 2.5 mg/ml 3-(4,5-dimethyl[…] (MTT) (Sigma) in PBS alone or phenol red-free RPMI medium containing 20 mM succinic acid, pH 7.4. Stock solutions of 3-nitropropionic acid (3NPA) in ethanol, thenoyltrifluoroacetone (TTFA) in DMSO, 3-BP in PBS, α-TOS in DMSO, and MitoQ (Alleva et al, 2003, James et al, 2005) in ethanol were prepared. The drugs were tested on NeuTL cells cultured in exponential growth phase in 96-well microtitre plates using 4-8 replicate wells per dilution assayed. To assess the ability of MitoQ to restore MTT reduction, cells were pre-incubated for 60 min with 2 or 5 μM MitoQ. Final concentrations of ethanol or DMSO in cultures were ≦0.1%. Treated and control cells were allowed to reduce MTT to blue formazan crystals for 2 or 4 h at 37° C. and 5% CO2. After incubation, culture supernatants were removed except for 30 μl, before the formazan crystals were solubilized by addition of 150 μl DMSO, and absorbance values were measured at 570 nm using a Fluorostar Optima plate reader.
To this end, the present inventors investigated whether α-TOS interferes with UbQ binding in complex II. For specifically measuring complex II activity in whole cells, a short-term (1-2 h) assay was used based on the reduction of the tetrazolium salt, MTT (Maehara et al, 1988). […] For this, oxidative respiration of murine NeuTL breast cancer cells was sustained on high levels of succinate (20 mM), thereby promoting the SDH activity of complex II (Maehara et al, 1988). The cells were then assayed within 1-2 h for their ability to enzymatically reduce MTT, which under conditions of high succinate becomes a specific indicator of complex II/SDH-dependent activity (Maehara et al, 1988, Berridge and Tan, 1993).

[3] = system: Jurkat, U937, Meso-2; settings: Tomic-Vatic et al, 2005, cited from earlier work; for IC50: Jurkat, U937, Meso-2; for pro-apoptotic activity: ester bond replaced by amide bond
[4] = system: MCF7; settings: cited from earlier work
[5] = system: B16(F10); settings: He et al, 1997, cited from earlier work; for IC50: B16(F10)
[6] = system: mesothelioma; test: Clinical study, patient with mesothelioma; type: in vivo; settings: same patient
Description: α-TOS was used to treat mesothelioma in a human cancer patient. […] The blood plasma levels were monitored and levels of α-TOS in the plasma attained 50 μM over prolonged periods during continual application. This is more than sufficient to kill the cancer cells based on in vitro analysis.
The patient was originally receiving high dose opiate medications, neuropathic pain medications, home oxygen, and was predicted to have a life expectancy of 6-8 weeks. After treatment with α-TOS, the patient no longer required analgesia or oxygen.
In December 2005, the patient started receiving transdermal delivery of α-TOS, prepared in a base cream and solubilised with dimethyl sulfoxide (DMSO).
In April 2007, therapy with α-TOS was commenced using a modified formulation mixed in a lipodermal cream (see below). […] In addition, a palpable lesion was visible growing out between the ribs and the right anterior chest wall. The patient was in very poor condition with a low ECOG- no CT scan could be performed at the time of commencing the α-TOS treatment because the patient was too moribund.
α-TOS formulation: 500 gms of Lipoderm cream plus 60 gms α-TOS compounded by the hospital pharmacy. About 30 gms of compounded mix was administered every few days, and the upper body was wrapped in plastic film (“saran wrap”) to improve absorption.

[7] = biological target: T2, α-tocopherol transfer protein (α-TTP) (Rattus norvegicus, UniProt P41034); settings: α-tocopherol 100%; Hosomi et al, 1997; cited from earlier work
T2 sequence (P41034 1-278): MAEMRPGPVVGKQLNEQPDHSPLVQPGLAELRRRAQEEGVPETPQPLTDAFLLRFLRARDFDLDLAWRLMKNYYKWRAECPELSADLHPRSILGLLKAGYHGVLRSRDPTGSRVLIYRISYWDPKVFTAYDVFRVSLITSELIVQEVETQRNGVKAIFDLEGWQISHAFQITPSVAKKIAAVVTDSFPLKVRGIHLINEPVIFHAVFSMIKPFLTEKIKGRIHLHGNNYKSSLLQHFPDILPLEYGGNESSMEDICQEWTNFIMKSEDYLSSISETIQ

In the case of Cc1c(C)c2c(c(C)c1OC(=O)C=CC(=O)O)CCC(C)(CCCC(C)CCCC(C)CCCC(C)C)O2 (stereo not drawn) [Compound 3, α-tocopheryl maleate], the “pro-apoptotic activity” value [1] is given as “Even greater pro-apoptotic activity” and the IC50 [1] is given as 22 µM.

In the case of O=C(O)CC[N+](=O)[O-] [Compound 3NPA, 3-nitropropionic acid], the “complex II-mediated MTT reduction” value [2] is reported as “potent inhibitors of the complex II-mediated MTT reduction”.

For Cc1c(C)c2c(c(C)c1OC(=O)CCCC(=O)O)CCC(C)(CCCC(C)CCCC(C)CCCC(C)C)O2 (stereo not shown) [Compound 5], the “pro-apoptotic activity” value [1] is given as “decreased activity”.

For Cc1c(C)c2c(c(C)c1OC(=O)CC(C)CC(=O)O)CCC(C)(CCCC(C)CCCC(C)CCCC(C)C)O2 (stereo not shown) [Compound 6], the “pro-apoptotic activity” value [1] is given as “decreased activity”.

For Cc1c(C)c2c(c(C)c1OC(=O)CC(C)(C)CC(=O)O)CCC(C)(CCCC(C)CCCC(C)CCCC(C)C)O2 (stereo not shown) [Compound 7], the “pro-apoptotic activity” value [1] is listed as “decreased activity”.

For COC(=O)CCC(=O)Oc1c(C)c(C)c2c(c1C)CCC(C)(CCCC(C)CCCC(C)CCCC(C)C)O2 (stereo not shown) [Compound 9], the “pro-apoptotic activity” value [1] is given as “without pro-apoptotic activity”.

In the case of Cc1c(C)c2c(c(C)c1NC(=O)CCC(=O)O)CCC(C)(CCCC(C)CCCC(C)CCCC(C)C)O2 (stereo not shown) [Compound 12], the IC50 [3] is given as 13 µM and the “pro-apoptotic activity” value [3] is given as “further enhancement of pro-apoptotic activity”.

For Cc1c(C)c2c(c(C)c1NC(=O)C=CC(=O)O)CCC(C)(CCCC(C)CCCC(C)CCCC(C)C)O2 (stereo not shown) [Compound 13], the IC50 [3] is given as 2 µM and the “pro-apoptotic activity” value [3] is given as “further enhancement of pro-apoptotic activity”.

For COC(=O)CCC(=O)Nc1c(C)c(C)c2c(c1C)CCC(C)(CCCC(C)CCCC(C)CCCC(C)C)O2 (stereo not shown) [Compound 14], the IC50 [3] is listed as greater than 100 µM.

In the case of Cc1c(C)c2c(c(C)c1OC(=O)C(N)CCCCN)CCC(C)(CCCC(C)CCCC(C)CCCC(C)C)O2 (stereo not shown) [Compound 16], the IC50 [4] is listed as 12 µM.

In the case of Cc1c(C)c2c(c(C)c1CC(=O)O)CCC(C)(CCCC(C)CCCC(C)CCCC(C)C)O2 (stereo not shown) [Compound 22], the “EC50 [μg/ml]” value ([4]; Shiau et al, 2006, footnote g) is given as 15-20^g μg/ml.

In the case of Cc1cc(OC(=O)CCC(=O)O)cc2c1OC(C)(CCCC(C)CCCC(C)CCCC(C)C)CC2 (stereo not shown) [Compound 35], the “pro-apoptotic activity” value [1] is given as “least effective” and the IC50 [1] is given as 66 µM.

For Cc1cc(OC(=O)C=CC(=O)O)cc2c1OC(C)(CCCC(C)CCCC(C)CCCC(C)C)CC2 (stereo not shown) [Compound 36], the IC50 [3] is listed as 49 µM.

For Cc1cc(NC(=O)CCC(=O)O)cc2c1OC(C)(CCCC(C)CCCC(C)CCCC(C)C)CC2 (stereo not shown) [Compound 37], the IC50 [3] is listed as 20 µM and the “pro-apoptotic activity” value [3] is listed as “further enhancement of pro-apoptotic activity”.

In the case of Cc1cc(NC(=O)C=CC(=O)O)cc2c1OC(C)(CCCC(C)CCCC(C)CCCC(C)C)CC2 (stereo not shown) [Compound 38], the IC50 [3] is listed as 9 µM and the “pro-apoptotic activity” value [3] is listed as “further enhancement of pro-apoptotic activity”.

For Cc1c(C)c2c(c(C)c1OC(=O)C(N)CCCCN)CCC(C)(CO)O2 (stereo not shown) [Compound 47], the IC50 [4] is given as 194 µM.

For CCCCCOCC1(C)CCc2c(C)c(OC(=O)C(N)CCCCN)c(C)c(C)c2O1 (stereo not shown) [Compound 48], the IC50 [4] is listed as 22 µM.

In the case of CCCCC(=O)OCC1(C)CCc2c(C)c(OC(=O)C(N)CCCCN)c(C)c(C)c2O1 (stereo not shown) [Compound 49], the IC50 [4] is listed as 15 µM.

For CC(C)=CCC/C(C)=C/CC/C(C)=C/CC[C@]1(C)CCc2cc(O)cc(C)c2O1 [Compound 59, δ-tocotrienol], the IC50 [5] is listed as 10 µM and the “potency in the murine B16-F10 melanoma cell model” value [5] is listed as “most potent agent”.

In the case of CC(C)=CCC/C(C)=C/CC/C(C)=C/CCC1(C)CCc2cc(O)ccc2O1 (stereo not shown) [Compound 60, desmethyl tocotrienol], the IC50 [5] is given as 0.9 µM.

With Nc1ccn([C@@H]2O[C@H](CO)[C@@H](O)C2(F)F)c(=O)n1 [Gemcitabine, reference compound] the “toxicity of other therapies (medical history)” value (“toxicity of other therapies” below) [6] was “unacceptable levels of toxicity”.

In the case of CCC1=C[C@@H]2CN(C1)Cc1c([nH]c3ccccc13)[C@@](C(=O)OC)(c1cc3c(cc1OC)N(C)[C@H]1[C@@](O)(C(=O)OC)[C@H](OC(C)=O)[C@]4(CC)C=CCN5CC[C@]31[C@@H]54)C2 [Vinorelbine, reference compound], the “toxicity of other therapies” value [6] is reported as “severe exacerbation of peripheral neuropathy”.

In the case of Oc1ccc(C2=Cc3ccc(O)cc3OC2)cc1 [phenoxodiol, reference compound], the “toxicity of other therapies” value [6] is reported as “ongoing severe neuropathy”.

In the case of Cc1c(C)c2c(c(C)c1O)CC[C@@](C)(CCC[C@H](C)CCC[C@H](C)CCCC(C)C)O2 [α-tocopherol], the “relative affinities for α-TTP” value [7] is listed as 100%.

In the case of Cc1cc(O)c(C)c2c1O[C@](C)(CCC[C@H](C)CCC[C@H](C)CCCC(C)C)CC2 [β-tocopherol], the “relative affinities for α-TTP” value [7] is listed as 38%.

In the case of Cc1c(O)cc2c(c1C)O[C@](C)(CCC[C@H](C)CCC[C@H](C)CCCC(C)C)CC2 [γ-tocopherol], the “relative affinities for α-TTP” value [7] is given as 9%.

For Cc1cc(O)cc2c1O[C@](C)(CCC[C@H](C)CCC[C@H](C)CCCC(C)C)CC2 [δ-tocopherol], the “relative affinities for α-TTP” value [7] is listed as 2%.
